Source: patent publication US20200239530A1, “COMPOUNDS AND METHODS OF MODULATING PROTEIN DEGRADATION” (Vividion Therapeutics, Inc., priority 2017, published 2020)

What was measured:
Assay in all cases: Cysteine liganding, probe competition
Format in all cases: binding
RNF7 RING-box protein 2 = target: T1, RNF7 RING-box protein 2 (Homo sapiens, UniProt Q9UBF6)
T1 construct: Cells were resuspended in cold PBS on ice and sonicated with a probe sonicator to achieve lysis; endogenous in cells
T1 sequence (Q9UBF6 1-113): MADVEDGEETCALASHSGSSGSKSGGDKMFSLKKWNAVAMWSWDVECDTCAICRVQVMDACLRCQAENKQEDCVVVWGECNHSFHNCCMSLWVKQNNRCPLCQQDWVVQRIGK
Method in brief: (§1)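 Steps: sonicate cells in cold PBS; treat 5 mg/ml lysate with compound (25° C, 1 hr); add desthiobiotin iodoacetamide probe from a 10 mM stock (25° C, 1 hr); precipitate, reduce, alkylate, digest with trypsin; capture labelled peptides on streptavidin for analysis.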

[1] = target: T2, UBR4 E3 ubiquitin-protein ligase UBR4 (Homo sapiens, UniProt Q5T4S7)
T2 construct: Cells were resuspended in cold PBS on ice and sonicated with a probe sonicator to achieve lysis; endogenous in cells
Method in brief: as §1

[2] = target: T3, TRMT1L TRMT1-like protein (Homo sapiens, UniProt Q7Z2T5)
T3 construct: Cells were resuspended in cold PBS on ice and sonicated with a probe sonicator to achieve lysis; endogenous in cells
T3 sequence (Q7Z2T5 1-733): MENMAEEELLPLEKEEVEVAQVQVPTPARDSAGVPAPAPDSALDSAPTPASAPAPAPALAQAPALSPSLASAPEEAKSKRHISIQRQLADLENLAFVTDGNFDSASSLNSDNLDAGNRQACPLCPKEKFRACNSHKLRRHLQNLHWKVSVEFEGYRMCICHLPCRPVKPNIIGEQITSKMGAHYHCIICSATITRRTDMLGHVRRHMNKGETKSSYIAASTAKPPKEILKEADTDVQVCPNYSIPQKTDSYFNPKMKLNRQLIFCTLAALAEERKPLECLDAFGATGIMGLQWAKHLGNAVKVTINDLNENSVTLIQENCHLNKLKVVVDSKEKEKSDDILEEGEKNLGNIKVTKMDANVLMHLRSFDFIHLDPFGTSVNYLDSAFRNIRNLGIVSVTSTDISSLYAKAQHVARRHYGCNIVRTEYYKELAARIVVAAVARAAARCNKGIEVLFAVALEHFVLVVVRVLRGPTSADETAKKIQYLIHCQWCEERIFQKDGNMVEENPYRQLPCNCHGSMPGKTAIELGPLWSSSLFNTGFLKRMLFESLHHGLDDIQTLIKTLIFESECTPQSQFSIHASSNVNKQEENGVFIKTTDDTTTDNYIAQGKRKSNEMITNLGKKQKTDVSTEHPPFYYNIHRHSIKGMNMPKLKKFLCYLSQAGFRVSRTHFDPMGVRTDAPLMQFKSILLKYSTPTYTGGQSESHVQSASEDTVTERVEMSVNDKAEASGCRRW
Method in brief: as §1

[3] = uniprot Q7Z2T5, in % (unit assumed)

T2 sequence (Q5T4S7 whole entry): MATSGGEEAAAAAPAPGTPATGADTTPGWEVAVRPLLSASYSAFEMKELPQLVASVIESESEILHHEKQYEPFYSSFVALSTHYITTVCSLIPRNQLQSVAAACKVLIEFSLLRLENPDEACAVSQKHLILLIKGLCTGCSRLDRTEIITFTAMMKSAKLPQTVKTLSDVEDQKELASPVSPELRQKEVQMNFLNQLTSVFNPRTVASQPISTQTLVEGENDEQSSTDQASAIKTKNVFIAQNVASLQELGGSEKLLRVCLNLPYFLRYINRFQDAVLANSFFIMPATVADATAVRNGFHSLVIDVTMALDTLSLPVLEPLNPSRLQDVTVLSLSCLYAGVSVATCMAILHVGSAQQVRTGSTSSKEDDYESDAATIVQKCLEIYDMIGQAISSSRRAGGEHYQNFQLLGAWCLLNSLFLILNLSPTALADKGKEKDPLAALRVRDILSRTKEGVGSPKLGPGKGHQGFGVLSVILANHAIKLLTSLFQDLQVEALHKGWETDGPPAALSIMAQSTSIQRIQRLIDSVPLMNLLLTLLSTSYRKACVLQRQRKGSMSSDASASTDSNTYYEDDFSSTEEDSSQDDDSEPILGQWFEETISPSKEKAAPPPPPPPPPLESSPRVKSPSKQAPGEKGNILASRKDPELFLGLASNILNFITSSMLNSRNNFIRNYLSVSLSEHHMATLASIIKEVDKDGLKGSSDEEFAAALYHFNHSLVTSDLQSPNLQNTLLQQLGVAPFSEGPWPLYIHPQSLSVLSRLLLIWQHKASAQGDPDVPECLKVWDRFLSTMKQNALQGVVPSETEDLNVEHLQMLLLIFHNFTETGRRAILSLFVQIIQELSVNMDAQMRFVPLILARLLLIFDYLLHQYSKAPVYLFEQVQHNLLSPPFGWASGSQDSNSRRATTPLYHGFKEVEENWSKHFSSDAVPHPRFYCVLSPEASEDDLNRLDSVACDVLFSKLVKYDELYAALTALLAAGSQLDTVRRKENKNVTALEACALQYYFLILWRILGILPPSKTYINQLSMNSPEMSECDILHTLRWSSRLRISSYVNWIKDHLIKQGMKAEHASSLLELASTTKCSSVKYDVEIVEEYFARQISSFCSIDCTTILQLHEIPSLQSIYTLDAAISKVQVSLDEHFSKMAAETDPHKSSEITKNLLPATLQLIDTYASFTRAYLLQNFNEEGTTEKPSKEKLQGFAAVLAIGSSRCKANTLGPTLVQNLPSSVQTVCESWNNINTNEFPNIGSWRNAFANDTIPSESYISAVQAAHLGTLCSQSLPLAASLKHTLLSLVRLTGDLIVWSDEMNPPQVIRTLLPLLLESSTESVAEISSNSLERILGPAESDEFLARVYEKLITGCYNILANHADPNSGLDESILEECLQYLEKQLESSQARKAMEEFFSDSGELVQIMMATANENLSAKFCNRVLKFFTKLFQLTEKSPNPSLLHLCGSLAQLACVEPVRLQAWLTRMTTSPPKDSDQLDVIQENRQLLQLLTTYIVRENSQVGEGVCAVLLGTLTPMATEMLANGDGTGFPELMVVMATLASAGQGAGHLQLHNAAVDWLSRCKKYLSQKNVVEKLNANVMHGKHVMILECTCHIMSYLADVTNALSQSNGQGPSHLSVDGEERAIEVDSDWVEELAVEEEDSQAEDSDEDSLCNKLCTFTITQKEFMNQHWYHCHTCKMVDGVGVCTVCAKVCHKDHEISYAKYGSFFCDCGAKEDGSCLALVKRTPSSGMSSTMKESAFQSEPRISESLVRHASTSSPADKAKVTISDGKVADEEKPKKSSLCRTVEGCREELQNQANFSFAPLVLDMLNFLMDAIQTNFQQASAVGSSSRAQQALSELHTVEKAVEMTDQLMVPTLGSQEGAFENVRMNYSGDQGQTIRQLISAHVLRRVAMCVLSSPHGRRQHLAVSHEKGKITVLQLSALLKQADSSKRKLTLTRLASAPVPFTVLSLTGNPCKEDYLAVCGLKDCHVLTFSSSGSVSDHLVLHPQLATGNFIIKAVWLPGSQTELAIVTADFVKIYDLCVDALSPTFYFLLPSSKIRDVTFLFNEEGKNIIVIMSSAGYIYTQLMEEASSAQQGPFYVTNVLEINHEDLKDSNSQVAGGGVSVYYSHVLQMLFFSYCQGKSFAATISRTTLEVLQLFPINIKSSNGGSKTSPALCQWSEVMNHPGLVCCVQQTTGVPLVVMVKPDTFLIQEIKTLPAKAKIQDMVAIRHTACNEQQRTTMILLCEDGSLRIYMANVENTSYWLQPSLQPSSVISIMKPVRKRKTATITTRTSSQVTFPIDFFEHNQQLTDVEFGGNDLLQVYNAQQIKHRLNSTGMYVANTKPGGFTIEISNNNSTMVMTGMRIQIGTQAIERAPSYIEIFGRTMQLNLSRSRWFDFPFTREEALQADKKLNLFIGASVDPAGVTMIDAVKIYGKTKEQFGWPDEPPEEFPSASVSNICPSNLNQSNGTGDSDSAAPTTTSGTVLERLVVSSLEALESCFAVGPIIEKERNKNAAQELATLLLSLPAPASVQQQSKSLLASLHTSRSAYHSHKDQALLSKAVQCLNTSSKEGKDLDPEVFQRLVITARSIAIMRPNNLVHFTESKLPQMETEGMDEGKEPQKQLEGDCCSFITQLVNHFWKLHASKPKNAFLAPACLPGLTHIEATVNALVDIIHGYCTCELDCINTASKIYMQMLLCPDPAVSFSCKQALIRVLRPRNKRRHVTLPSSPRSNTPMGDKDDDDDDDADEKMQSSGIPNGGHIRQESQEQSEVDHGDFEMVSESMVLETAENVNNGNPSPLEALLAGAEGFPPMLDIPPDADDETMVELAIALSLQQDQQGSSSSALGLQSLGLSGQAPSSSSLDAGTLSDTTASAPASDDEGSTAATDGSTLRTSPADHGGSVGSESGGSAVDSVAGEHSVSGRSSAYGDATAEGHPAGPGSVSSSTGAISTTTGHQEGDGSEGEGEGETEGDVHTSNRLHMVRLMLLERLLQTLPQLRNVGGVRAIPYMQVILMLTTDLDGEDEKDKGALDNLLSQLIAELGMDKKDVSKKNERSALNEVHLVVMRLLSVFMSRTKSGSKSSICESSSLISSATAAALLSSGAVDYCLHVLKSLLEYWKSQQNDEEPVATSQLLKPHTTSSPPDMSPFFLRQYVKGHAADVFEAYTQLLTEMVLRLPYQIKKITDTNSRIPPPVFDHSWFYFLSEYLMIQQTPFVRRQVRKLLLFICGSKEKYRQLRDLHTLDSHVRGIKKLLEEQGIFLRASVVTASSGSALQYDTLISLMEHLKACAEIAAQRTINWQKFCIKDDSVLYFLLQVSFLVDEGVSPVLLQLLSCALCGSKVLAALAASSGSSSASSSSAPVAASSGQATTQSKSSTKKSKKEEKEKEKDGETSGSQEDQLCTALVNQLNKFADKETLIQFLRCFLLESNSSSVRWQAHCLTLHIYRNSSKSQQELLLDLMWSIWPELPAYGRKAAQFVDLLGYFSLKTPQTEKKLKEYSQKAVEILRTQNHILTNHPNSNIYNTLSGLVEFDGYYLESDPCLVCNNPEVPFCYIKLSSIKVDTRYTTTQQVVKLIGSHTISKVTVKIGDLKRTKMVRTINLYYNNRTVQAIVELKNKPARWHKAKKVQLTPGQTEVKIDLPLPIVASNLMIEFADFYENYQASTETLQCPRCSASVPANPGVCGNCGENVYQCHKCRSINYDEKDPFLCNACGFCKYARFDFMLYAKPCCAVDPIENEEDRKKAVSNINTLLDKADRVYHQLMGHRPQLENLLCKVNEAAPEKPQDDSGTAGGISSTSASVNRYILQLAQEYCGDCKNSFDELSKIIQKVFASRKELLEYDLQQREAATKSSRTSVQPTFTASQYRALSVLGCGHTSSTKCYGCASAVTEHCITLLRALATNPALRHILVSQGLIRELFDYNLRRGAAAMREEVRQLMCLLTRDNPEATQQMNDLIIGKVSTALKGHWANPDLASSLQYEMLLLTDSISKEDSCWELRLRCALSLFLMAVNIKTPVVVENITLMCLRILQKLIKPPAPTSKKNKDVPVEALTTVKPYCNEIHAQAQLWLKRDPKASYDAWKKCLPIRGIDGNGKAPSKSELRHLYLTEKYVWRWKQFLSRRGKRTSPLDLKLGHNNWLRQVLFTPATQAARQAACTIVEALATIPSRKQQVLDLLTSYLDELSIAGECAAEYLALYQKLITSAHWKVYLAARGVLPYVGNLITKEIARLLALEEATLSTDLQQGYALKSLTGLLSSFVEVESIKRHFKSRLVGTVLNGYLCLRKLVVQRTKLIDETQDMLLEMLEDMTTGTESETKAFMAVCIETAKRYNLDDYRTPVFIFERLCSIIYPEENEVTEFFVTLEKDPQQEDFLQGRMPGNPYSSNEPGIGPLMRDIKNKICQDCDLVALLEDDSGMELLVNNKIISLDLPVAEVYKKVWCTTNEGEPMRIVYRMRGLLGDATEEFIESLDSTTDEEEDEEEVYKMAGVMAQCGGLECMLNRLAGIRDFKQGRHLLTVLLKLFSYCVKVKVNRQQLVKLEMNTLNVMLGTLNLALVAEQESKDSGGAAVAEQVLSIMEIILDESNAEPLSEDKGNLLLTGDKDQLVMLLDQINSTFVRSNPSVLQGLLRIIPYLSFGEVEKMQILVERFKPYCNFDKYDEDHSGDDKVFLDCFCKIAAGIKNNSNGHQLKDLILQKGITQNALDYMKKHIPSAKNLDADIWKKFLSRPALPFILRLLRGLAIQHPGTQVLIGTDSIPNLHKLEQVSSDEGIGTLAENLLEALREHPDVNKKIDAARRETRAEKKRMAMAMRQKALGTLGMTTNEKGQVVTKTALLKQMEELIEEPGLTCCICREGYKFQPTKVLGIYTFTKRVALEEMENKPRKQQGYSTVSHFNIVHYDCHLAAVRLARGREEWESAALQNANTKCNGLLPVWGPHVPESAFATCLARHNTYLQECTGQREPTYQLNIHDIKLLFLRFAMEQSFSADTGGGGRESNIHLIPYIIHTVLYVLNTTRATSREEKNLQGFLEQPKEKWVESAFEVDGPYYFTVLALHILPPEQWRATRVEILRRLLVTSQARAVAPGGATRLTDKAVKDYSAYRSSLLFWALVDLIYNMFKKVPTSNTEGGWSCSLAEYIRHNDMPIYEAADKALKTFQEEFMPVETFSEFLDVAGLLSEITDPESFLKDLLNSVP

Compound	Liganded (RNF7 RING-box protein 2; RNF7 Res# 88, uniprot Q9UBF6)	Liganded ([1]; UBR4 Res# 4049, uniprot Q5T4S7)	Liganded ([2]; TRMT1L Res# 239, uniprot Q7Z2T5)	100 Max (RNF7 RING-box protein 2; uniprot Q9UBF6)	100 ave (RNF7 RING-box protein 2; uniprot Q9UBF6)	100 Max ([1]; uniprot Q5T4S7)	100 ave ([1]; uniprot Q5T4S7)	500 Max ([1]; uniprot Q5T4S7)	500 ave ([1]; uniprot Q5T4S7)	100 ave ([2]; uniprot Q7Z2T5)	500 ave ([2]; uniprot Q7Z2T5)	100 Max [2, 3]	500 Max [2, 3]
COc1ccc2c(c1)CCCN2C(=O)CCl [KB02]	YES	YES	YES										
O=C(CCl)Nc1cc(C(F)(F)F)cc(C(F)(F)F)c1 [KBO3]				20.4	20.4	13.1	−4.9	49.5	29.3	−17.83	36.38	−4.62	36.38
